± gives the expanded uncertainty stated by the source.
How the values were obtained:
[1] = Crystal; DTA
[2] = Molar enthalpy of transition or fusion; conditions: Crystal; DSC

## C[C@H]([C@@H](O)c1ccccc1)N(C)C [(+)-N-methylephedrine]
[1]
  Normal melting temperature: 86.60 ± 2 °C
[2]
  Molar enthalpy of transition or fusion: 7.3 ± 0.208 kcal/mol

Source: the NIST ThermoML archive (doi:10.1021/je020176b)
